Measured values reported in ChEMBL document CHEMBL3045744, “Effect of pyriproxyfen, a juvenile hormone mimic, on egg hatch, nymph development, adult emergence and reproduction of the Asian citrus psyllid, Diaphorina citri Kuwayama” (2010).
≈ marks a conversion by molar mass, not a printed value. Calls of active or inactive are those of the source. No cut-off for these calls is given here.

Legend:
Diaphorina citri [1] = test: Ovicidal activity against Diaphorina citri in 2 to 3 months old citrus plant assessed as inhibition of old egg hatch at 64 ug/mL by residual contact bioassay; type: functional
Diaphorina citri [2] = test: Ovicidal activity against Diaphorina citri in 2 to 3 months old citrus plant assessed as inhibition of old egg hatch at 128 ug/mL by leaf dip bioassay; type: functional; conditions: foliar
Diaphorina citri [3] = test: Ovicidal activity against Diaphorina citri in 2 to 3 months old citrus plant assessed as inhibition of old egg hatch at 4 to 8 ug/mL by leaf dip bioassay; type: functional, organism-based
Diaphorina citri [4] = test: Ovicidal activity against Diaphorina citri in 2 to 3 months old citrus plant assessed as inhibition of egg hatch measured 0 to 48 hr prior egg laying by residual contact bioassay; type: functional
Diaphorina citri [5] = test: Ovicidal activity against Diaphorina citri in 2 to 3 months old citrus plant assessed as inhibition of egg hatch measured 49 to 96 hr after egg laying by leaf dip bioassay; type: functional
Diaphorina citri [6] = test: Ovicidal activity against Diaphorina citri in 2 to 3 months old citrus plant assessed as inhibition of egg hatch measured 0 to 48 hr after egg laying by leaf dip bioassay; type: functional
Diaphorina citri [7] = test: Inhibition of reproduction in fifth-instar nymphs of Diaphorina citri in flush of citrus plants assessed as fecundity of egg at 100 ug/ml measured 0 to 3 days after emergence; type: functional, organism-based
Diaphorina citri [8] = test: Inhibition of reproduction in fifth-instar nymphs of Diaphorina citri in flush of citrus plants assessed as viability of egg at 100 ug/ml applied topically; type: functional, organism-based
Diaphorina citri [9] = test: Inhibition of reproduction in fifth-instar nymphs of Diaphorina citri in flush of citrus plants assessed as fecundity of egg at 100 ug/ml applied topically; type: functional, organism-based
Diaphorina citri [10] = test: Insecticidal activity against Diaphorina citri assessed as mortality at 100 ug/ml applied topically; type: functional, organism-based
Diaphorina citri [11] = test: Inhibition of reproduction in fifth-instar nymphs of Diaphorina citri in flush of citrus plants assessed as viability of egg at 64 ug/ml measured 10 to 12 days after emergence relative to control; type: functional, organism-based
Diaphorina citri [12] = test: Inhibition of reproduction in fifth-instar nymphs of Diaphorina citri in flush of citrus plants assessed as viability of egg at 64 ug/ml measured 7 to 9 days after emergence relative to control; type: functional
Diaphorina citri [13] = test: Inhibition of reproduction in fifth-instar nymphs of Diaphorina citri in flush of citrus plants assessed as viability of egg at 64 ug/ml measured 4 to 6 days after emergence relative to control; type: functional
Diaphorina citri [14] = test: Inhibition of reproduction in fifth-instar nymphs of Diaphorina citri in flush of citrus plants assessed as viability of egg at 32 to 64 ug/ml measured 0 to 3 days after emergence relative to control; type: functional
Diaphorina citri [15] = test: Inhibition of reproduction in fifth-instar nymphs of Diaphorina citri in flush of citrus plants assessed as fecundity of egg at 32 to 64 ug/ml measured 7 to 12 days after emergence relative to control; type: functional, organism-based
Diaphorina citri [16] = test: Inhibition of reproduction in fifth-instar nymphs of Diaphorina citri in flush of citrus plants assessed as fecundity of egg at 32 to 64 ug/ml measured 4 to 6 days after emergence relative to control; type: functional; set-up: scale not given: the % may be the effect or the level left
Diaphorina citri [17] = test: Inhibition of reproduction in fifth-instar nymphs of Diaphorina citri in flush of citrus plants assessed as fecundity of egg at 32 to 64 ug/ml measured 0 to 3 days after emergence relative to control; type: functional; set-up: scale not given: the % may be the effect or the level left
Diaphorina citri [18] = test: Induction of morphological abnormalities of fourth and fifth-instar nymphs of Diaphorina citri in flush of citrus plants at 32 to 64 ug/ml after 48 hr; type: functional, organism-based
Diaphorina citri [19] = test: Inhibition of reproduction in fifth-instar nymphs of Diaphorina citri in flush of citrus plants assessed as fecundity of egg at 100 ug/ml measured 4 to 6 days after emergence; type: functional, organism-based
Diaphorina citri [20] = test: Inhibition of reproduction in fifth-instar nymphs of Diaphorina citri in flush of citrus plants assessed as viability of egg at 100 ug/ml measured 4 to 6 days after emergence; type: functional, organism-based
Diaphorina citri [21] = test: Insecticidal activity against fourth-instar nymphs of Diaphorina citri nymph in flush of citrus plants assessed as mortality measured on fifth-instar stage after 48 hr; type: functional
Diaphorina citri [22] = test: Insecticidal activity against fifth-instar nymphs of Diaphorina citri nymph in flush of citrus plants assessed as mortality measured on fifth-instar stage after 48 hr; type: functional
Diaphorina citri [23] = test: Insecticidal activity against third- instar nymphs of Diaphorina citri nymph in flush of citrus plants assessed as mortality measured on fourth-instar stage after 48 hr; type: functional
Diaphorina citri [24] = test: Insecticidal activity against second-instar nymphs of Diaphorina citri nymph in flush of citrus plants assessed as mortality measured on third-instar stage after 48 hr; type: functional
Diaphorina citri [25] = test: Insecticidal activity against first-instar nymphs of Diaphorina citri nymph in flush of citrus plants assessed as mortality measured on second-instar stage after 48 hr; type: functional
Diaphorina citri [26] = test: Inhibition of reproduction in fifth-instar nymphs of Diaphorina citri in flush of citrus plants assessed as viability of egg at 100 ug/ml measured 7 to 12 days after emergence; type: functional, organism-based
Diaphorina citri [27] = test: Inhibition of reproduction in fifth-instar nymphs of Diaphorina citri in flush of citrus plants assessed as fecundity of egg at 100 ug/ml measured 7 to 12 days after emergence; type: functional, organism-based
Diaphorina citri [28] = test: Inhibition of reproduction in fifth-instar nymphs of Diaphorina citri in flush of citrus plants assessed as viability of egg at 100 ug/ml measured 0 to 3 days after emergence; type: functional, organism-based

`CC(COc1ccc(Oc2ccccc2)cc1)Oc1ccccn1` (stereo unspecified) [PYRIPROXYFEN] was tested, and the inhibition at 64 µg/mL (Diaphorina citri [1]) was 70%, the inhibition at 128 µg/mL (Diaphorina citri [2]) was over 90% and the inhibition (Diaphorina citri [3]) was “Active”. The LC50 (Diaphorina citri [4]) was 32.4 µg/mL (≈ 101 µM), the inhibition (Diaphorina citri [4]) was “Dose-dependent effect” and the inhibition (Diaphorina citri [5]) was “Dose-dependent effect”. The LC50 (Diaphorina citri [5]; foliar) was 37 µg/mL (≈ 115 µM), the inhibition (Diaphorina citri [6]) was “Dose-dependent effect” and the LC50 (Diaphorina citri [6]; foliar) was 18.4 µg/mL (≈ 57.4 µM). For the same molecule, the Activity (Diaphorina citri [7]) was “inactive”, the Activity (Diaphorina citri [8]) was “Active” and the Activity (Diaphorina citri [9]) was “Active”. For the same molecule, the Activity (Diaphorina citri [10]) was “inactive”, the Activity (Diaphorina citri [11]) was “inactive” and the Activity (Diaphorina citri [12]) was 83%. The Activity (Diaphorina citri [13]) was 59%, the Activity (Diaphorina citri [14]) was 69% and the Activity (Diaphorina citri [15]) was “inactive”. For the same molecule, the Activity (Diaphorina citri [16]) was 64%, the Activity (Diaphorina citri [17]) was 58% and the Activity (Diaphorina citri [18]) was “Active”. For the same molecule, the Activity (Diaphorina citri [19]) was “Active”, the Activity (Diaphorina citri [20]) was “Active” and the LC50 (Diaphorina citri [21]) was 44.3 µg/mL (≈ 138 µM). For the same molecule, the LC50 (Diaphorina citri [22]) was 51.3 µg/mL (≈ 160 µM), the LC50 (Diaphorina citri [23]) was 25.2 µg/mL (≈ 78.6 µM) and the LC50 (Diaphorina citri [24]) was 21.6 µg/mL (≈ 67.1 µM). For the same molecule, the LC50 (Diaphorina citri [25]) was 17.6 µg/mL (≈ 54.8 µM), the Activity (Diaphorina citri [26]) was “inactive” and the Activity (Diaphorina citri [27]) was “inactive”. The Activity (Diaphorina citri [28]) was “Active”.
